According to patent publication US20170157013A1, “Metal Amino Acid Complexes for Bacterial Aggregation” (Colgate-Palmolive Company, priority 2015, published 2017):

Columns and labels:
[1] = Stability of ZLC in solution (low-pH preparation); assay type: physicochemical; details: final reaction mixture, clear, slightly acidic pH (<pH 7)
Method: In an alternative method, lysine HCl (2 molar equivalents) is dissolved in deionized water with stirring at room temperature. Concentrated hydrochloric acid equal to approximately 0.5 molar equivalent is added to the reaction mixture. ZnO (1 molar equivalent) is then added to the reaction mixture, and the mixture is stirred until complete dissolution occurs, typically within a minutes to a few hours. The pH of the reaction is kept at 6 or below. The ZLC complex can be kept in solution in the final reaction mixture, which is clear, for more than 3 months at slightly acidic pH (i.e., <pH 7) without precipitation of ZnO. Alternatively, the reaction mixture can be spray dried to yield ZLC powder, or the reaction mixture can be adjusted to a near-neutral pH (e.g., 6.8), and the crystalline salt of ZLC can be isolated upon slow evaporation of the concentrated ZLC reaction mixture.

A. viscous bacteria = test: Quantitative bacterial aggregation by absorbance at 610 nm, A. viscous; assay type: cell-based; details: for final test result, absorbance at 610 nm: A. viscous, end of experiment
[2] = system: oral bacteria in stimulated whole saliva; test: Aggregation of oral bacteria in stimulated whole saliva, culture dish wells; assay type: cell-based, human; details: 15 minutes at room temperature
Method: Stimulated whole saliva from a human volunteer was harvested and mixed either with an untreated control (water), metal salt solutions (0.2% zinc oxide or 0.1% zinc oxide/0.05% zinc citrate mixture), amino acid solutions (0.3% arginine, 1% arginine, or 0.94% lysine), or metal-amino acid complex solutions (1.2% zinc-lysine complex, 1.33% zinc-arginine complex, or 1% copper-lysine complex) as described in the present disclosure. The solutions were incubated for 15 minutes at room temperature in culture dish wells, then photographs were taken.

Streptococcus oralis = test: Quantitative bacterial aggregation by absorbance at 610 nm, S. oralis; assay type: cell-based; details: for OD610: 0.9% NaCl; for change in OD (610 nm) over the course of the experiment / time by which significant drop in absorbance has occurred / time of peak of absorbance: S. oralis; for change in OD (610 nm) over the course of the experiment: about one hour
Method: To evaluate the aggregation quantitatively, Streptococcus oralis bacteria was suspended in sterile 0.9% NaCl medium in capped culture tubes. To each tube, a different test sample was added, and the absorbance of the medium at […] was monitored over a period of about one hour. Bacteria of this size will remain suspended in solution for several hours before settling out under gravity. This gives such a solution a uniform haziness or opacity that can be quantified by measuring the absorbance of the solution at 610 nm. The aggregation of bacteria results in clumps of bacterial matter, which initially raises absorbance, followed by a sharp drop in absorbance as the bacterial matter settles out, leaving an increasingly transparent solution. Therefore, a decrease in absorbance signals the formation of bacterial aggregates.

[3] = 1 minute, 1.5% arginine, 0.94% lysine, 0.35% ZnCl2, 1.2% Zn-Lysine, 1.33% Zn-Arg
[4] = 14 minutes, 1.5% arginine, 0.94% lysine, 0.35% ZnCl2, 1.2% Zn-Lysine, 1.33% Zn-Arg
[5] = 27 minutes, 1.5% arginine, 0.94% lysine, 0.35% ZnCl2, 1.2% Zn-Lysine, 1.33% Zn-Arg
[6] = 46 minutes, 1.5% arginine, 0.94% lysine, 0.35% ZnCl2, 1.2% Zn-Lysine, 1.33% Zn-Arg
[7] = 66 minutes, 1.5% arginine, 0.94% lysine, 0.35% ZnCl2, 1.2% Zn-Lysine, 1.33% Zn-Arg
[8] = 0.2% zinc oxide, 0.1% zinc oxide/0.05% zinc citrate, 0.3% arginine, 0.94% lysine, 1.2% zinc-lysine, 1.33% zinc-arginine, 1% copper-lysine
[9] = 1 minute, 1.5% arginine, 0.94% lysine, 0.35% ZnCl2, 1.2% Zn-Lys, 1.33% Zn-Arg
[10] = 9 minutes, 1.5% arginine, 0.94% lysine, 0.35% ZnCl2, 1.2% Zn-Lys, 1.33% Zn-Arg
[11] = 21 minutes, 1.5% arginine, 0.94% lysine, 0.35% ZnCl2, 1.2% Zn-Lys, 1.33% Zn-Arg
[12] = 28 minutes, 1.5% arginine, 0.94% lysine, 0.35% ZnCl2, 1.2% Zn-Lys, 1.33% Zn-Arg
[13] = 40 minutes, 1.5% arginine, 0.94% lysine, 0.35% ZnCl2, 1.2% Zn-Lys, 1.33% Zn-Arg
[14] = 55 minutes, 1.5% arginine, 0.94% lysine, 0.35% ZnCl2, 1.2% Zn-Lys, 1.33% Zn-Arg
[15] = 1.5% arginine, 0.94% lysine, 0.35% zinc chloride, 1.2% zinc-lysine complex, 1.33% zinc-arginine complex
[16] = 1.2% zinc-lysine complex, 1.33% zinc-arginine complex

Compound	OD610 (A. viscous bacteria; [3])	OD610 (A. viscous bacteria; [4])	OD610 (A. viscous bacteria; [5])	OD610 (A. viscous bacteria; [6])	OD610 (A. viscous bacteria; [7])	observation of aggregate formation in saliva [2, 8]	OD610 (Streptococcus oralis; [9])	OD610 (Streptococcus oralis; [10])	OD610 (Streptococcus oralis; [11])	OD610 (Streptococcus oralis; [12])	OD610 (Streptococcus oralis; [13])	OD610 (Streptococcus oralis; [14])	change in OD (610 nm) over the course of the experiment (Streptococcus oralis; [15])	further results
Cl.Cl.NCCCCC(N)C(=O)[O-].NCCCCC(N)C(=O)[O-].O.O.[Zn+2] (centres unmarked) [ZLC, zinc-lysine-chloride complex]	0.454	0.554	0.175	0.032	0.014	Large aggregates of material slowly formed and settled to the bottom of the dishes	0.549	0.551	0.574	0.515	0.357	0.182	peak of absorbance at about 21 minutes, followed by a significant drop	time kept in solution without precipitation of ZnO [1]: more than 3 months; final test result, absorbance at 610 nm (A. viscous bacteria): nearly zero absorbance; time by which significant drop in absorbance has occurred (Streptococcus oralis; [16]): about 55 minutes; time of peak of absorbance (Streptococcus oralis; [16]): about 21 minutes
[O]=[Zn] [zinc oxide]	–	–	–	–	–	only undissolved and/or precipitated metal salt	–	–	–	–	–	–	–	–
[Cl-].[Cl-].[Zn+2] [ZnCl2, zinc chloride]	0.315	0.315	0.316	0.391	0.255	–	0.572	0.584	0.615	0.680	0.652	0.397	no appreciable change in OD (610 nm) or a rise in OD (610 nm)	–
zinc-arginine complex [Zn-Arg]	0.436	0.474	0.623	0.369	0.025	Large aggregates of material slowly formed and settled to the bottom of the dishes	0.563	0.568	0.575	0.620	0.616	0.361	brief rise in absorbance which peaks at about 28 minutes, followed by a significant drop in absorbance	final test result, absorbance at 610 nm (A. viscous bacteria): nearly zero absorbance; time by which significant drop in absorbance has occurred (Streptococcus oralis; [16]): about 55 minutes; time of peak of absorbance (Streptococcus oralis; [16]): about 28 minutes
NCCCC[C@H](N)C(=O)O [Lysine, lysine]	0.416	0.413	0.411	0.410	0.409	no change was observed compared to the negative control	0.537	0.547	0.552	0.553	0.555	0.555	no appreciable change in OD (610 nm) or a rise in OD (610 nm)	–
N=C(N)NCCC[C@H](N)C(=O)O [Arginine, arginine]	0.438	0.432	0.427	0.418	0.424	no change was observed compared to the negative control	0.492	0.473	0.455	0.449	0.441	0.428	no appreciable change in OD (610 nm) or a rise in OD (610 nm)	OD610 (A. viscous bacteria; 1 minute, 5% arginine): 0.341; OD610 (A. viscous bacteria; 14 minutes, 5% arginine): 0.334; OD610 (A. viscous bacteria; 27 minutes, 5% arginine): 0.335; OD610 (A. viscous bacteria; 46 minutes, 5% arginine): 0.333; OD610 (A. viscous bacteria; 66 minutes, 5% arginine): 0.333; observation of aggregate formation in saliva ([2]; 1% arginine): no change was observed compared to the negative control; OD610 (Streptococcus oralis; 1 minute, 5% arginine): 0.496; OD610 (Streptococcus oralis; 9 minutes, 5% arginine): 0.468; OD610 (Streptococcus oralis; 21 minutes, 5% arginine): 0.450; OD610 (Streptococcus oralis; 28 minutes, 5% arginine): 0.446; OD610 (Streptococcus oralis; 40 minutes, 5% arginine): 0.440; OD610 (Streptococcus oralis; 55 minutes, 5% arginine): 0.435; change in OD (610 nm) over the course of the experiment (Streptococcus oralis; 5% arginine): no appreciable change in OD (610 nm) or a rise in OD (610 nm)
copper-lysine complex	–	–	–	–	–	Large aggregates of material slowly formed and settled to the bottom of the dishes	–	–	–	–	–	–	–	–
